In patent US20140179664A1, “Heterocyclyl Pyrimidine Analogues As JAK Inhibitors” (Cellzome Limited, priority 2011, published 2014):

Legend:
Type in all cases: binding
JAK1 = target: T1, JAK1 (Homo sapiens, UniProt P23458); experiment: Kinobeads assay, JAK1; settings: mixed Molt4/Ramos lysate, read-out: Inhibition values (IC50) JAK1
T1 construct: endogenous in cells; host or cells: Molt4 (ATCC CRL-1582) and Ramos (ATCC CRL-1596), mixed lysate 1:2
Description: After the incubation time the beads with captured proteins were separated from the lysate. Bound proteins were then eluted and the presence of JAK1, JAK2, JAK3 and TYK2 was detected and quantified using specific antibodies in a dot blot procedure and the Odyssey infrared detection system. Dose response curves for individual kinases were generated and IC50 values calculated.
(§1) 5×DP buffer: 250 mM Tris-HCl pH 7.4, 25% Glycerol, 7.5 mM MgCl2, 750 mM NaCl, 5 mM Na3VO4; filter the 5×DP buffer through a 0.22 μm filter and store in aliquots at −80° C. The 5×DP buffer is diluted with H2O to 1×DP buffer containing 1 mM DTT and 25 mM NaF.
Stock solutions of test compounds were prepared in DMSO. […] Starting with this solution a 1:3 dilution series (9 steps) was prepared. For control experiments (no test compound) a buffer containing 2% DMSO was used.
Cells were homogenized in a Potter S homogenizer in lysis buffer: 50 mM Tris-HCl, 0.8% NP40, 5% glycerol, 150 mM NaCl, 1.5 mM MgCl2, 25 mM NaF, 1 mM sodium vanadate, 1 mM DTT, pH 7.5. […] The material was dounced 10 times using a mechanized POTTER S, transferred to 50 mL falcon tubes, incubated for 30 minutes on ice and spun down for 10 minutes at 20,000 g at 4° C. (10,000 rpm in Sorvall SLA600, precooled). […] (33.500 rpm in Ti50.2, precooled). The supernatant was transferred again to a fresh 50 mL falcon tube, the protein concentration was determined by a Bradford assay (BioRad) and samples containing 50 mg of protein per aliquot were prepared. The samples were immediately used for experiments or frozen in liquid nitrogen and stored frozen at −80° C.
Cell lysate (approximately 50 mg protein per plate) was thawed in a water bath at room temperature and then stored on ice. […] The diluted cell lysate was stored on ice. Mixed Molt4/Ramos lysate was prepared by combining one volume of Molt4 lysate and two volumes of Ramos lysate (ratio 1:2).
Plates were sealed and incubated for 3 hours in a cold room on a plate shaker (Heidolph tiramax 1000) at 750 rpm. Afterwards the plate was washed 3 times with 230 μL washing buffer (1×DP 0.4% NP40). […] The eluate was frozen quickly at −80° C. and stored at −20° C.
Afterwards the membrane was washed twice for 10 minutes with PBS buffer containing 0.2% Tween 20 at room temperature. […] Afterwards the membrane was washed twice for 10 minutes each with 1×PBS buffer containing 0.2% Tween 20 at room temperature. Then the membrane was rinsed once with PBS buffer to remove residual Tween 20. The membrane was kept in PBS buffer at 4° C. and then scanned with the Odyssey instrument. Fluorescence signals were recorded and analysed according to the instructions of the manufacturer.

TYK2 = target: T2, TYK2 (Homo sapiens, UniProt P29597); experiment: Kinobeads assay, TYK2; settings: mixed Molt4/Ramos lysate, read-out: Inhibition values (IC50) TYK2
T2 construct: endogenous in cells; host or cells: Molt4 (ATCC CRL-1582) and Ramos (ATCC CRL-1596), mixed lysate 1:2
T2 sequence (P29597 whole entry): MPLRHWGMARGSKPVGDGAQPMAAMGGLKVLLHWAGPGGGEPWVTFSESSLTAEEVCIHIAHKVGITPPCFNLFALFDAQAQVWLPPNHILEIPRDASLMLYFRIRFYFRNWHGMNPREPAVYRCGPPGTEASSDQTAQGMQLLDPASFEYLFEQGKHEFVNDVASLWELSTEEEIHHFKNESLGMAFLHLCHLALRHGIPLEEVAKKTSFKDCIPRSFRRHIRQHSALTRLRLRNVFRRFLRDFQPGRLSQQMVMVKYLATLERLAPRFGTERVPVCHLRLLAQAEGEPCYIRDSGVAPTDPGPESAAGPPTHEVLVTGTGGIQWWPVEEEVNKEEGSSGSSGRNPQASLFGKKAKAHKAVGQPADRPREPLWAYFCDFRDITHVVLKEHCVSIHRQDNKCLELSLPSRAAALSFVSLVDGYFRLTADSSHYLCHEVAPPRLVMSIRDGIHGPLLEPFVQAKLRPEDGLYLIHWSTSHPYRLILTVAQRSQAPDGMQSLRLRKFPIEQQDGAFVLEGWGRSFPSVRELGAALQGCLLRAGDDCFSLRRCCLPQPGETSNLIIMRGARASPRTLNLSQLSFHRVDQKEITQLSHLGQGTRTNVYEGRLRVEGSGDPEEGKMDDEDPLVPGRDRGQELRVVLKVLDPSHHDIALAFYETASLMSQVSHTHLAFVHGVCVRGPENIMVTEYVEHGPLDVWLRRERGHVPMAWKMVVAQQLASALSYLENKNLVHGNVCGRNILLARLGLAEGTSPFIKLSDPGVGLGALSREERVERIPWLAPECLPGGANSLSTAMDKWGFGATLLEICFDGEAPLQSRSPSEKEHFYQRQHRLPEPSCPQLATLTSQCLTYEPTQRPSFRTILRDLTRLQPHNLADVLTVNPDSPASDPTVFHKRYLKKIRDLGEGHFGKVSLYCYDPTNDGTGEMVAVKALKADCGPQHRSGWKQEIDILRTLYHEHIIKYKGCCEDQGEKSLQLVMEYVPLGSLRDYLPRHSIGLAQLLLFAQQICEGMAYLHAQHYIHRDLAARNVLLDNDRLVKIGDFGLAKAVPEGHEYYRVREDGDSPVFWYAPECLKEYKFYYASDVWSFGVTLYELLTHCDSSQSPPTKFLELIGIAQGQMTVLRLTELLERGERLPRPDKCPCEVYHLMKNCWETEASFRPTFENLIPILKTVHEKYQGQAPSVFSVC
Description: (§2) The compounds of the present invention as described in the previous examples were tested in a Kinobeads™ assay as described for ZAP-70 (WO-A 2007/137867). Briefly, test compounds (at various concentrations) and the affinity matrix with the immobilized aminopyrido-pyrimidine ligand 24 were added to cell lysate aliquots and allowed to bind to the proteins in the lysate sample. After the incubation time the beads with captured proteins were separated from the lysate. Bound proteins were then eluted and the presence of JAK1, JAK2, JAK3 and TYK2 was detected and quantified using specific antibodies in a dot blot procedure and the Odyssey infrared detection system. Dose response curves for individual kinases were generated and IC50 values calculated. Kinobeads™ assays for ZAP-70 (WO-A 2007/137867) and for kinase selectivity profiling (WO-A 2006/134056) have been previously described.
(§3) The affinity matrix was washed two times with 15 mL of lx DP buffer containing 0.2% NP40 (IGEPAL® CA-630, Sigma, #13021) and then resuspended in 1×DP buffer containing 0.2% NP40 (3% beads slurry).
as §1
(§4) Stock solutions of test compounds were prepared in DMSO. In a 96 well plate […] solution of diluted test compounds at 5 mM in DMSO were prepared. Starting with this solution a 1:3 dilution series (9 steps) was prepared. For control experiments (no test compound) a buffer containing 2% DMSO was used.
(§5) Molt4 cells (ATCC catalogue number CRL-1582) and Ramos cells (ATCC catalogue number CRL-1596) were grown in 1 L Spinner flasks (Integra Biosciences, #182101) in suspension in RPMI 1640 medium (Invitrogen, #21875-034) supplemented with 10% Fetal Bovine Serum (Invitrogen) at a density between 0.15×10^6 and 1.2×10^6 cells/mL. Cells were harvested by centrifugation, washed once with 1×PBS buffer (Invitrogen, #14190-094) and cell pellets were frozen in liquid nitrogen and subsequently stored at −80° C. Cells were homogenized in a Potter S homogenizer in lysis buffer: 50 mM Tris-HCl, 0.8% NP40, 5% glycerol, 150 mM NaCl, 1.5 mM MgCl2, 25 mM NaF, 1 mM sodium vanadate, 1 mM DTT, pH 7.5. One complete EDTA-free tablet (protease inhibitor cocktail, Roche Diagnostics, 1873580) per 25 mL buffer was added. The material was dounced 10 times using a mechanized POTTER S, transferred to 50 mL falcon tubes, incubated for 30 minutes on ice and spun down for 10 minutes at 20,000 g at 4° C. (10,000 rpm in Sorvall SLA600, precooled). The supernatant was transferred to an ultracentrifuge (UZ)-polycarbonate tube (Beckmann, 355654) and spun for 1 hour at 100.000 g at 4° C. (33.500 rpm in Ti50.2, precooled). The supernatant was transferred again to a fresh 50 mL falcon tube, the protein concentration was determined by a Bradford assay (BioRad) and samples containing 50 mg of protein per aliquot were prepared. The samples were immediately used for experiments or frozen in liquid nitrogen and stored frozen at −80° C.
(§6) Cell lysate (approximately 50 mg protein per plate) was thawed in a water bath at room temperature and then stored on ice. To the thawed cell lysate 1×DP 0.8% NP40 buffer containing protease inhibitors (1 tablet for 25 mL buffer; EDTA-free protease inhibitor cocktail; Roche Diagnostics 1873580) was added in order to reach a final protein concentration of 10 mg/mL total protein. The diluted cell lysate was stored on ice. Mixed Molt4/Ramos lysate was prepared by combining one volume of Molt4 lysate and two volumes of Ramos lysate (ratio 1:2).
(§7) To a 96 well filter plate (Multiscreen HTS, BV Filter Plates, Millipore #MSBVN1250) were added per well: 100 μL affinity matrix (3% beads slurry), […], of compound solution, and 50 μL of diluted lysate. […]

JAK2 = target: T3, JAK2 (Homo sapiens, UniProt O60674); experiment: Kinobeads assay, JAK2; settings: mixed Molt4/Ramos lysate, read-out: Inhibition values (IC50) JAK2
T3 construct: endogenous in cells; host or cells: Molt4 (ATCC CRL-1582) and Ramos (ATCC CRL-1596), mixed lysate 1:2
T3 sequence (O60674 whole entry): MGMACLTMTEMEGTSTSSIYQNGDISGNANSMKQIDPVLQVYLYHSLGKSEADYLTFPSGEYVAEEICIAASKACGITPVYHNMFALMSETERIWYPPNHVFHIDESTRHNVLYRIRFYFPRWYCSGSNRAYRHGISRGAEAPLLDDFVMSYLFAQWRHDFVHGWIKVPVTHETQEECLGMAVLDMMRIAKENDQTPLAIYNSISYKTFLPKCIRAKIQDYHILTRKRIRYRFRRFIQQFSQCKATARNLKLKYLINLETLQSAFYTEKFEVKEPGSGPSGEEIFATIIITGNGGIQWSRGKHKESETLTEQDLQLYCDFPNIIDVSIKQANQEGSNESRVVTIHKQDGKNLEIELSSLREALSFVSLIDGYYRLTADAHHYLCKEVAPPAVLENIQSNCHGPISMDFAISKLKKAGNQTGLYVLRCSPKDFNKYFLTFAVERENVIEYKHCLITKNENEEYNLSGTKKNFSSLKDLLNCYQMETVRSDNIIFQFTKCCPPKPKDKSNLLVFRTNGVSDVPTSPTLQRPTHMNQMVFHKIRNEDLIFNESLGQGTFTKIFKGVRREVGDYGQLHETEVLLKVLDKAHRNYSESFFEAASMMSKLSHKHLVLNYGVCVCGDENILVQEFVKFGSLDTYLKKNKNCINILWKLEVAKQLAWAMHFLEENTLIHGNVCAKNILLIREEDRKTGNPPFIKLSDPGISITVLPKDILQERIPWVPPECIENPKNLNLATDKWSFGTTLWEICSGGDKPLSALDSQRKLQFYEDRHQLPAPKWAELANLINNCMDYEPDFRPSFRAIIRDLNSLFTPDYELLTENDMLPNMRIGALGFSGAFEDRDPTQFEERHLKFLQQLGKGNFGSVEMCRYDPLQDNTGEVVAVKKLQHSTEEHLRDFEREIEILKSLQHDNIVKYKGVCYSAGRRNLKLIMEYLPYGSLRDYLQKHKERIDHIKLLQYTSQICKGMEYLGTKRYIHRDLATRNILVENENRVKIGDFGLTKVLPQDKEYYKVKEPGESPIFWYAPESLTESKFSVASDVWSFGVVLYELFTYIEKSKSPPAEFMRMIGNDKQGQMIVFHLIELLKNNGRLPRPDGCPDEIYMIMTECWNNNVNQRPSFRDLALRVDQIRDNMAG
Description: as §2, §3, §1, §4, §5, §6, §7

T1 sequence (P23458 whole entry): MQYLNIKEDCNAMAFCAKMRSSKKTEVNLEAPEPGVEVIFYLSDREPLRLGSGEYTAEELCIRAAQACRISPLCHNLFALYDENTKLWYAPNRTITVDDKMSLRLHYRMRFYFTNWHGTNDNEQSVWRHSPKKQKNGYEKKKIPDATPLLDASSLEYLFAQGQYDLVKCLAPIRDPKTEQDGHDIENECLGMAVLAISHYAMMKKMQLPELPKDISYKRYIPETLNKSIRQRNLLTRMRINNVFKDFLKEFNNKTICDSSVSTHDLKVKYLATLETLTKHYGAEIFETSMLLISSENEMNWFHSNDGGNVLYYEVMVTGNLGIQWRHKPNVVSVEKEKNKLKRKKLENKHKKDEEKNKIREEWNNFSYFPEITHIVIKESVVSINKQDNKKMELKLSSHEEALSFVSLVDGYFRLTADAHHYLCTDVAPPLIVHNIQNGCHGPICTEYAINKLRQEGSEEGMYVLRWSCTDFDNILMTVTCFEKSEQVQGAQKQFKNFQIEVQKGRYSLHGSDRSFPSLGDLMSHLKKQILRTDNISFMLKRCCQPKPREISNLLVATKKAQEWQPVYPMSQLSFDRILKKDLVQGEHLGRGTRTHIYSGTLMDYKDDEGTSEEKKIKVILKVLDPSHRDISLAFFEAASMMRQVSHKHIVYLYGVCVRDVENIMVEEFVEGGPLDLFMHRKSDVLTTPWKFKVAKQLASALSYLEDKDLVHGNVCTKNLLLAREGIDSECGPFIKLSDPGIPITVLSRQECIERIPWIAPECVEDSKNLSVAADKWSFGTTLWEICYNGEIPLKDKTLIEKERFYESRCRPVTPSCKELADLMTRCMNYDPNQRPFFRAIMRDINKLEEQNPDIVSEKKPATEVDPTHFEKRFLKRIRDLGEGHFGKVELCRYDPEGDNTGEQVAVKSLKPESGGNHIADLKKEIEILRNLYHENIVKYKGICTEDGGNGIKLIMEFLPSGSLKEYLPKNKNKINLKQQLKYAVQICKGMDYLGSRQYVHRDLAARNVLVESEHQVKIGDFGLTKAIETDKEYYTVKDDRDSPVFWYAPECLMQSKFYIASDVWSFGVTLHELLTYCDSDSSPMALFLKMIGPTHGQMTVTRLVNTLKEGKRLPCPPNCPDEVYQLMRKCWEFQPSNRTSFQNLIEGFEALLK

IC50 (JAK1) [nM] | IC50 (TYK2) [nM] | IC50 (JAK2) [nM] | SMILES
100 to 1000 | 100 to 1000 | 1000 to 10000 | OCCn1cc(Nc2ncc(Cl)c(NC(CO)c3ccccc3Cl)n2)cn1 (stereo not drawn) [Compound 120]
1000 to 10000 | ≥ 10000 | ≥ 10000 | CNC(=O)Cn1cc(Nc2ncc(F)c(N[C@H](CO)c3cc(F)cc(-c4cnn(C)c4)c3)n2)cn1 [Compound 157]
< 100 | 100 to 1000 | 100 to 1000 | NC(=O)Cn1cc(Nc2ncc(Cl)c(NC(CO)c3cc(F)ccc3F)n2)cn1 (stereo not drawn) [Compound 132]
100 to 1000 | 100 to 1000 | 100 to 1000 | OCCn1cc(Nc2ncc(Cl)c(NC(CO)c3cc(F)cc(F)c3)n2)cn1 (stereo not drawn) [Compound 122]
1000 to 10000 | ≥ 10000 | ≥ 10000 | Cn1cc(-c2cc(F)cc([C@@H](CO)Nc3nc(Nc4cnn(CCO)c4)ncc3F)c2)cn1 [Compound 153]
1000 to 10000 | 1000 to 10000 | ≥ 10000 | O=C(NCC(F)(F)F)C(Nc1nc(Nc2cnn(CCO)c2)ncc1Cl)c1ccccc1F (stereo not drawn) [Compound 128]
< 100 | 100 to 1000 | 100 to 1000 | NC(=O)Cn1cc(Nc2ncc(Cl)c(N[C@H](CO)c3cc(F)cc(F)c3)n2)cn1 [Compound 144]
1000 to 10000 | 1000 to 10000 | 1000 to 10000 | NCCCn1cc(Nc2ncc(Cl)c(N[C@H](CO)c3ccccc3)n2)cn1 [Compound 113]
> 10000 | 1000 to 10000 | 1000 to 10000 | COc1cccc([C@@H](CO)Nc2nc(Nc3cnn(C(C)C)c3)ncc2Cl)c1 [Compound 106]
100 to 1000 | 1000 to 10000 | 1000 to 10000 | Cc1cnc(Nc2cnn(CC(F)F)c2)nc1N[C@H](CO)c1cc(F)ccc1F [Compound 166]
1000 to 10000 | 1000 to 10000 | ≥ 10000 | CCn1cc(Nc2ncc(Cl)c(N[C@H](CO)c3cccc(OC)c3)n2)cn1 [Compound 96]
1000 to 10000 | 100 to 1000 | 1000 to 10000 | CNC(=O)Cn1cc(Nc2ncc(Cl)c(N[C@H](CO)c3cccc(-c4cnn(C)c4)c3)n2)cn1 [Compound 154]
> 10000 | ≥ 10000 | ≥ 10000 | Cc1cnc(Nc2cnn(C)c2)nc1N[C@H](CO)c1cccc(-c2cnn(C)c2)c1 [Compound 149]
1000 to 10000 | 1000 to 10000 | ≥ 10000 | Cn1cc(Nc2ncc(Cl)c(N[C@H](CO)c3cccc(N4CCOCC4=O)c3)n2)cn1 [Compound 138]
1000 to 10000 | 1000 to 10000 | 1000 to 10000 | CC(C)n1cc(Nc2ncc(Cl)c(N[C@H](CO)c3cccnc3)n2)cn1 [Compound 107]
100 to 1000 | 1000 to 10000 | 100 to 1000 | Cn1cc(Nc2ncc(Cl)c(N[C@H](CO)c3cc(F)cc(F)c3)n2)cn1 [Compound 142]

IC50 (JAK1) [nM] | IC50 (TYK2) [nM] | IC50 (JAK2) [nM] | SMILES
< 100 | 100 to 1000 | 100 to 1000 | CNC(=O)Cn1cc(Nc2ncc(Cl)c(NC(CO)c3cc(F)ccc3F)n2)cn1 (stereo not drawn) [Compound 130]
100 to 1000 | 1000 to 10000 | 1000 to 10000 | CCC(Nc1nc(Nc2cnn(CC(N)=O)c2)ncc1Cl)c1ccccc1F (stereo not drawn) [Compound 126]
100 to 1000 | 100 to 1000 | 1000 to 10000 | Cn1cc(Nc2ncc(F)c(N[C@H](CO)c3cc(F)ccc3F)n2)cn1 [Compound 146]
100 to 1000 | 100 to 1000 | 1000 to 10000 | NC(=O)Cn1cc(Nc2ncc(Cl)c(NC(CO)c3ccccc3Cl)n2)cn1 (stereo not drawn) [Compound 118]
1000 to 10000 | 1000 to 10000 | ≥ 10000 | CNC(=O)Cn1cc(Nc2ncc(Cl)c(N[C@H](CO)c3cccc(OC)c3)n2)cn1 [Compound 99]
1000 to 10000 | ≥ 10000 | ≥ 10000 | Cn1cc(-c2cccc(C(CO)Nc3nc(Nc4cnn(CCO)c4)ncc3Cl)c2)cn1 (stereo not drawn) [Compound 94]
1000 to 10000 | 1000 to 10000 | 1000 to 10000 | CCn1cc(Nc2ncc(Cl)c(N[C@H](CO)c3ccccc3F)n2)cn1 [Compound 109]
< 100 | 100 to 1000 | 100 to 1000 | NC(=O)Cn1cc(Nc2ncc(Cl)c(N[C@H](CO)c3cc(F)ccc3F)n2)cn1 [Compound 140]
1000 to 10000 | 1000 to 10000 | ≥ 10000 | Cn1cc(Nc2ncc(Cl)c(NC(C)(CO)c3ccccc3)n2)cn1 (stereo not drawn) [Compound 7]
100 to 1000 | 100 to 1000 | 100 to 1000 | OCCn1cc(Nc2ncc(F)c(N[C@H](CO)c3cc(F)ccc3F)n2)cn1 [Compound 147]
1000 to 10000 | 1000 to 10000 | 100 to 1000 | COc1ccccc1[C@@H](CO)Nc1nc(Nc2cnn(C(C)C)c2)ncc1Cl [Compound 105]
1000 to 10000 | 100 to 1000 | 1000 to 10000 | CNC(=O)Cn1cc(Nc2ncc(Cl)c(NC(CO)c3ccccc3C(F)(F)F)n2)cn1 (stereo not drawn) [Compound 131]
1000 to 10000 | 1000 to 10000 | 1000 to 10000 | Cn1cc(Nc2ncc(F)c(N[C@H](CO)c3cc(F)cc(F)c3)n2)cn1 [Compound 158]
< 100 | 100 to 1000 | 100 to 1000 | OCCn1cc(Nc2ncc(Cl)c(N[C@H](CO)c3cc(F)cc(F)c3)n2)cn1 [Compound 143]
1000 to 10000 | 1000 to 10000 | ≥ 10000 | CNC(=O)Cn1cc(Nc2ncc(F)c(N[C@H](CO)c3ccccc3)n2)cn1 [Compound 111]
100 to 1000 | 100 to 1000 | 1000 to 10000 | NC(=O)Cn1cc(Nc2ncc(F)c(N[C@H](CO)c3cc(F)cc(F)c3)n2)cn1 [Compound 160]
